According to PMC11259132, “Tyrosine phenol-lyase inhibitor quercetin reduces fecal phenol levels in mice” (PNAS Nexus, 2024):
Like-named read-outs stand apart in the source and are kept apart here.

Assays:
Format in all cases: biochemical
[1] = biological target: T1, Tyrosine phenol-lyase (TPL) (Morganella morganii, UniProt J7TAF3); assay: recombinant TPL assay, phenol by LC-MS; Lineweaver-Burk kinetics
T1 construct: recombinant TPL from M. morganii ssp. morganii (JCM1672), pET-15b

[2] = biological target: T2, Tyrosine phenol-lyase (TPL) (Citrobacter koseri, UniProt A8AM34); assay: recombinant TPL assay at […] inhibitor, phenol by LC-MS
T2 construct: recombinant TPL from C. koseri (JCM1658), pET-15b
T2 sequence (A8AM34 1-465): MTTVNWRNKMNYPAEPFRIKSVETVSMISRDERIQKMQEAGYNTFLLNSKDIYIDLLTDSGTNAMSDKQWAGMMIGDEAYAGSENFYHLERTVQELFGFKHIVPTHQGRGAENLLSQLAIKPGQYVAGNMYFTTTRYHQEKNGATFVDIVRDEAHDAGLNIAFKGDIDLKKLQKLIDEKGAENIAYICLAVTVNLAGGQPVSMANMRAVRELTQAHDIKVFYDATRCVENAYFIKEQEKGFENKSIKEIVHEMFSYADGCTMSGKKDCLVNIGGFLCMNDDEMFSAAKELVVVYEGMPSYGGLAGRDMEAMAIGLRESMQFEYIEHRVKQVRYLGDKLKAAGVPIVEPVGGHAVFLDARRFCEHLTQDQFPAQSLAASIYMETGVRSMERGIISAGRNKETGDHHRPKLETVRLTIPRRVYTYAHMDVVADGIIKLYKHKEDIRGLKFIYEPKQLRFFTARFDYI

[3] = biological target: T1, Tyrosine phenol-lyase (TPL)

T1 sequence (J7TAF3 1-456): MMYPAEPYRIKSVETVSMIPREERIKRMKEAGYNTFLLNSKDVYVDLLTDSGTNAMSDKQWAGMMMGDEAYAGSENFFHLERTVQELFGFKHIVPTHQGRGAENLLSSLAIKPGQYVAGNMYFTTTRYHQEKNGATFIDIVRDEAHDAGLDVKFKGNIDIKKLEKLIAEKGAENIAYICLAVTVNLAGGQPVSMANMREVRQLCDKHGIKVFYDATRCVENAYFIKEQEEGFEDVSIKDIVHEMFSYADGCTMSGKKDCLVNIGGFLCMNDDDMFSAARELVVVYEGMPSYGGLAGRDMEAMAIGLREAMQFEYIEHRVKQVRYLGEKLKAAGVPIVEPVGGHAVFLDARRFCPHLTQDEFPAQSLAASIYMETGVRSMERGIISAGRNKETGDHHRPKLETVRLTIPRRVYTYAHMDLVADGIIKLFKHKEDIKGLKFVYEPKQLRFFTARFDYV

Compound	recombinant TPL assay at 500 μM inhibitor, phenol by LC-MS [3]	further results
O=c1c(O)c(-c2ccc(O)c(O)c2)oc2cc(O)cc(O)c12 [quercetin]	–	Ki [1]: 19.9 µM; recombinant TPL assay at 500 μM inhibitor, phenol by LC-MS [2]: The strongest inhibitory activity of quercetin was confirmed using another recombinant TPL isolated from Citrobacter koseri (JCM1658; Fig. 1B)
O=C1c2c(O)cc(O)cc2O[C@H](c2ccc(O)c(O)c2)[C@H]1O [taxifolin]	structural analogs of quercetin, including taxifolin, kaempferol, luteolin, and myricetin, significantly inhibited TPL-catalyzed phenol production	–
O=c1cc(-c2ccc(O)c(O)c2)oc2cc(O)cc(O)c12 [luteolin]	structural analogs of quercetin, including taxifolin, kaempferol, luteolin, and myricetin, significantly inhibited TPL-catalyzed phenol production	–
N[C@@H](Cc1ccc(O)cn1)C(=O)O [2-aza-Tyr]	–	Ki ([1]; read-out: Ki): 42 µM
O=c1c(O)c(-c2ccc(O)cc2)oc2cc(O)cc(O)c12 [kaempferol]	structural analogs of quercetin, including taxifolin, kaempferol, luteolin, and myricetin, significantly inhibited TPL-catalyzed phenol production	–
